The record followed here is patent US20220306647A1, “NOVEL INDOLE-2-CARBOXAMIDES ACTIVE AGAINST THE HEPATITUS B VIRUS (HBV)” (AICURIS GMBH & CO. KG, priority 2019, published 2022).

One assay deals with HBV (HepAD38 cells). Kind of assay: HBV replication assay: determination of HBV DNA from the supernatants of HepAD38 cells. It counts as cell-based. The settings on record: Hepatitis B virus, 144 h, HBV DNA in HepAD38 supernatant at day 6, qPCR, read-out: Cell activity. The gist of the method:
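HepAD38 cells seeded without tetracycline and treated with half-log compound dilutions; tetracycline-treated wells serve as cell control. On day 6, supernatant HBV DNA was purified and quantified by real-time PCR against plasmid standards; EC50 from non-linear regression of relative copy numbers, three experiments in triplicate.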
Background: Real-time PCR tracks product formation cycle by cycle.

Assay [1] has as its target T1, HBV core protein (C-terminal truncated core protein, 149 amino acids of the N-terminal assembly domain, BODIPY-FL labelled) (UniProt P03146).
T1 construct: fused on or other part: A single cysteine added after residue 149, at position 150; It carries the BODIPY-FL maleimide label
Nature of the assay: Biochemical capsid assembly assay (fluorescence quenching). Put shortly:
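Fluorescence quenching of BODIPY-FL-labelled core dimers (1.0 to 2.0 μM) in 50 mM HEPES pH 7.5; compounds at 8 concentrations, 0.5 log-unit dilutions from top 100, 31.6 or 10 μM, 0.5% DMSO. Assembly started with NaCl to […]; fluorescence (ex 477/em 525 nm) read after 6 min. EC50 by non-linear regression.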

[2] abbreviates: assembly started with NaCl, fluorescence read after 6 min, read-out: Assembly activity.

Where two headings read alike, the source gives them in different places. A value given as a limit tells only on which side of the number the result lay.

T1 sequence (P03146 whole entry, the tested form may be a part): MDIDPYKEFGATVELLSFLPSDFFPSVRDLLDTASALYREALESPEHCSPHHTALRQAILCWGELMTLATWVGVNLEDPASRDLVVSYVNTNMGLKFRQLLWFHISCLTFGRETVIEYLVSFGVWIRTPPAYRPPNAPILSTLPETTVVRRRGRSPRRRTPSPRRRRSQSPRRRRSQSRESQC

Take `C[C@@H](NC(=O)c1noc2c1CN(C(=O)c1cc3c(F)c(F)ccc3[nH]1)CC2)C(F)(F)F` [Example 105, 5-(4,5-difluoro-1H-indole-2-carbonyl)-N-[(2R)-1,1,1-trifluoropropan-2-yl]-4H,5H,6H,7H-[1,2]oxazolo[4,5-c]pyridine-3-carboxamide]: in the assay with HBV (HepAD38 cells), the EC50 was under 1 µM. Further, the IC50 in assay [1] (setting [2]) was under 5 µM.

Consider `CN(C(=O)c1cnn2c1CN(C(=O)c1cc3ccccc3[nH]1)CC2)C1(COc2ccc(C(=O)O)cc2)CC1` [Example 47, 4-({1-[N-methyl-5-(1H-indole-2-carbonyl)-4H,5H,6H,7H-pyrazolo[1,5-a]pyrazine-3-amido]cyclopropyl}methoxy)benzoic acid], for which the EC50 in the assay on HBV (HepAD38 cells) was under 1 µM. Besides, the IC50 in assay [1] (setting [2]) was under 5 µM.

With `CN(C(=O)c1cnn2c1CN(C(=O)c1cc3c(Cl)c(F)ccc3[nH]1)CC2)C1(c2ccc(C(=O)O)cc2)CC1` [Example 80, 4-{1-[N-methyl-5-(4-chloro-5-fluoro-1H-indole-2-carbonyl)-4H,5H,6H,7H-pyrazolo[1,5-a]pyrazine-3-amido]cyclopropyl}benzoic acid], the EC50 in the assay with HBV (HepAD38 cells) is under 1 µM. Moreover, the IC50 in assay [1] (setting [2]) was under 5 µM.

`CN(C(=O)c1cnn2c1CN(C(=O)c1cc3ccccc3[nH]1)CC2)C1(Cc2ccc(C(=O)O)cc2)CC1` [Example 34, 4-({1-[N-methyl-5-(1H-indole-2-carbonyl)-4H,5H,6H,7H-pyrazolo[1,5-a]pyrazine-3-amido]cyclopropyl}methyl)benzoic acid]: in the assay with HBV (HepAD38 cells), the EC50 fell in the range of 1 to 10 µM. For the same compound, the IC50 in assay [1] (setting [2]) was under 5 µM.

Turning to `CN1C(=O)c2c3c(nn2CC12CC2)CCN(C(=O)c1cc2cc(F)c(Cl)cc2[nH]1)C3` [Example 15, 12′-(6-chloro-5-fluoro-1H-indole-2-carbonyl)-4′-methyl-4′,7′,8′,12′-tetraazaspirol[cyclopropane-1,5′-tricyclo[7.4.0.0^2′7]tridecane]-1′,8′-dien-3′-one], the EC50 with HBV (HepAD38 cells) is under 1 µM. Moreover, the IC50 in assay [1] (setting [2]) is under 5 µM.

Consider `Cc1cc(F)cc2[nH]c(C(=O)N3CCc4nn5c(c4C3)C(=O)N(C)C3(CC3)C5)cc12` [Example 88, 12′-(6-fluoro-4-methyl-1H-indole-2-carbonyl)-4′-methyl-4′,7′,8′,12′-tetraazaspiro[cyclopropane-1,5′-tricyclo[7.4.0.0^2,7]tridecane]-1′,8′-dien-3′-one], for which the EC50 in the assay with HBV (HepAD38 cells) is under 1 µM. The IC50 in assay [1] (setting [2]) was under 5 µM.

Take `O=C(c1cc2ccccc2[nH]1)N1CCc2nn3c(c2C1)C(=O)N(CCO)C1(CC3)CC1` [Example 89, 13′-(2-hydroxyethyl)-4′-(1H-indole-2-carbonyl)-4′, 8′,9′,13′-tetraazaspiro[cyclopropane-1,12′-tricyclo[7.5.0.0^2,7]tetradecane]-1′,7′-dien-14′-one]: the EC50 with HBV (HepAD38 cells) is under 1 µM. Also, the IC50 in assay [1] (setting [2]) is under 5 µM.

Take `CN(C(=O)c1cnn2c1CN(C(=O)c1cc3ccccc3[nH]1)CC2)C1(c2ccccc2C(=O)O)CC1` [Example 30, 2-{1-[N-methyl-5-(1H-indole-2-carbonyl)-4H,5H,6H,7H-pyrazolo[1,5-a]pyrazine-3-amido]cyclopropyl}benzoic acid]: the EC50 in the assay with HBV (HepAD38 cells) lay in the range of 1 to 10 µM. Besides, the IC50 in assay [1] (setting [2]) is under 5 µM.

Consider `CN(C(=O)c1cnn2c1CN(C(=O)c1cc3ccccc3[nH]1)CC2)C1(COc2cccc(C(=O)O)c2)CC1` [Example 62, 3-({1-[N-methyl-5-(1H-indole-2-carbonyl)-4H,5H,6H,7H-pyrazolo[1,5-a]pyrazine-3-amido]cyclopropyl}methoxy)benzoic acid], for which the EC50 in the assay with HBV (HepAD38 cells) was under 100 µM. Besides, the IC50 in assay [1] (setting [2]) was under 5 µM.

With `Cc1cccc2[nH]c(C(=O)N3CCn4ncc(C(=O)N(C)C5(c6ccc(C(=O)O)cc6)CC5)c4C3)cc12` [Example 82, 4-{1-[N-methyl-5-(4-methyl-1H-indole-2-carbonyl)-4H,5H,6H,7H-pyrazolo[1,5-a]pyrazine-3-amido]cyclopropyl}benzoic acid], in the assay on HBV (HepAD38 cells), the EC50 was under 1 µM. The IC50 in assay [1] (read-out: Assembly activity, assembly started with NaCl, fluorescence read after 6 min) was under 5 µM.

Regarding `CCc1cccc2[nH]c(C(=O)N3CCn4ncc(C(=O)N(C)C5(c6ccc(C(=O)O)cc6)CC5)c4C3)cc12` [Example 83, 4-{1-[N-methyl-5-(4-ethyl-1H-indole-2-carbonyl)-4H,5H,6H,7H-pyrazolo[1,5-a]pyrazine-3-amido]cyclopropyl}benzoic acid], the EC50 in the assay with HBV (HepAD38 cells) is under 1 µM. The IC50 in assay [1] (setting [2]) was under 5 µM.

For `CN(C(=O)c1cnn2c1CN(C(=O)c1cc3cc(F)c(Cl)cc3[nH]1)CC2)C1(c2ncc(C(=O)O)cn2)CC1` [Example 57, 2-{1-[N-methyl-5-(6-chloro-5-fluoro-1H-indole-2-carbonyl)-4H,5H,6H,7H-pyrazolo[1,5-a]pyrazine-3-amido]cyclopropyl}pyrimidine-5-carboxylic acid], the EC50 with HBV (HepAD38 cells) lay within 1 to 10 µM. Also, the IC50 in assay [1] (setting [2]) was under 5 µM.

With `CN(C(=O)c1cnn2c1CN(C(=O)c1cc3c(F)c(F)c(F)cc3[nH]1)CC2)C1(c2ccc(C(=O)O)cc2)CC1` [Example 78, 4-{1-[N-methyl-5-(4,5,6-trifluoro-1H-indole-2-carbonyl)-4H,5H,6H,7H-pyrazolo[1,5-a]pyrazine-3-amido]cyclopropyl}benzoic acid], the EC50 in the assay with HBV (HepAD38 cells) is under 1 µM. For the same compound, the IC50 in assay [1] (setting [2]) was under 5 µM.

For the compound `Cc1cc(F)cc2[nH]c(C(=O)N3CCn4ncc(C(=O)N(C)C5(c6ccc(C(=O)O)cc6)CC5)c4C3)cc12` [Example 54, 4-{1-[N-methyl-5-(6-fluoro-4-methyl-1H-indole-2-carbonyl)-4H,5H,6H,7H-pyrazolo[1,5-a]pyrazine-3-amido]cyclopropyl}benzoic acid], in the assay with HBV (HepAD38 cells), the EC50 is under 1 µM. Besides, the IC50 in assay [1] (setting [2]) is under 5 µM.
